Data on one compound can be found in US20130224300A1, “COMPOSITIONS AND METHODS THEREOF FOR ORAL ADMINISTRATION OF DRUGS” (priority 2011, published 2013).

The series can be described thus: Sumatriptan pharmacokinetics after oral gavage in cocoa butter with or without DDM. It counts as in vivo, beagle dogs. Particulars: 25 mg in cocoa butter with 1% DDM vs no-DDM control, dog, 0-180 min.

Description: The plot depicts serum concentrations of sumatriptan in a canine at zero through 180 min. following oral delivery (by gavage) of 25 mg sumatriptan in 1.0% DDM in a non-aqueous solution comprising cocoa butter. The solid circles represent plasma sumatriptan concentrations for doses not containing DDM (the control) and the solid squares show plasma sumatriptan concentrations for the sumatriptan doses containing DDM.
Sumatriptan, 2.5 g, was dissolved in 100 mL of cocoa butter at 45 deg. […] (in the liquid state) resulting in a solution having a sumatriptan concentration of 25 mg/mL. The solution was divided into two equal 50 mL portions. To one was added 500 mg DDM. Both solutions were kept at 45 degrees C. until the DDM is seen to have completely dissolved upon visual inspection yielding a 1% DDM solution in cocoa butter. The solutions were then cooled to about 4-10 degrees C. to allow the cocoa butter to solidify. One mL portions of the solidified cocoa butter-sumatriptan-DDM solution and one mL portions of the cocoa butter-sumatriptan (no DDM) control were formed into spherical balls and administered to beagle dogs by oral gavage. Blood samples were collected at timed intervals and plasma sumatriptan concentrations measured using a standard clinical assay.

On to `CNS(=O)(=O)Cc1ccc2[nH]cc(CCN(C)C)c2c1` [sumatriptan], for which the “increase in oral absorption based upon the relative AUC's” value is on record as around 19%.
